Assay results published in paper PMC9293909 (Nature Communications, 2022).
“And” between values parts separate entries of the source, which are not always exact repeats. Equal values may be shown once.

How the values were obtained:
[1] = tested on: postsynaptic A1Rs, CA1 pyramidal cells; experiment: Whole-cell patch-clamp, membrane potential of CA1 pyramidal cells; assay type: cell-based, rat
Experimental: (§1) Rats were kept on a 12-hour light-dark cycle with slices made 90 min after entering the light cycle. […] The brain was removed, cut down the midline and the two sides of the brain stuck down to a metal base plate using cyanoacrylate glue. […] Slices were stored at 34 °C for 1–6 h in aCSF (1 mM MgCl2, 2 mM CaCl2) before use.
(§2) A slice was transferred to the recording chamber and perfused at 3 ml min^−1 with aCSF at 32 ± 0.5 °C. Slices were visualised using IR-DIC optics with an Olympus BX151W microscope (Scientifica) and a CCD camera (Hitachi). […] Voltage and current recordings were obtained using an Axon Multiclamp 700B amplifier (Molecular Devices, USA) and digitised at 20 KHz. Data acquisition and analysis was performed using pClamp 10 (Molecular Devices, USA). For voltage-clamp experiments, CA1 pyramidal cells were held at −60 mV. Peptides to interfere with G protein signalling were introduced via the patch pipette into the recorded cell.

[2] = Intrinsic clearance by human liver microsomes; details: UoBern01 at 1.00E-07 M
[3] = Half-life determination in PBS; assay type: physicochemical; details: PBS, pH 7.4
Experimental: […] Samples were analysed by HPLC-MS/MS and corresponding peak areas were recorded for each analyte. The ratio of precursor compound remaining after each time-point relative to the amount present at time 0, expressed as a percentage, is reported as chemical stability.

[4] = Half-life determination in human plasma; details: UoBern01 at 1.00E-06 M
Experimental: (§3) At the end of incubation at each of the time points (0, 0.5, 1, 1.5, 2 h), acetonitrile was added to the incubation mixture followed by centrifugation. Samples were analysed by HPLC-MS/MS and peak areas were recorded for each analyte. The area of precursor compound remaining after each of the time points relative to the amount remaining at time 0, expressed as a percentage, was calculated. Subsequently, the t1/2 is estimated from the slope of the initial linear range of the logarithmic curve of compound remaining (%) versus time, assuming first-order kinetics.

[5] = tested on: native presynaptic A1Rs, rat hippocampal slices; experiment: Extracellular fEPSP recording, inhibition of excitatory synaptic transmission in hippocampal slices; assay type: cell-based
Experimental: as §1
A slice was transferred to the recording chamber, submerged in aCSF and perfused at 4–6 ml min^−1 (32 ± 0.5 °C). The slice was placed on a grid allowing perfusion above and below the tissue and all tubing was gastight (to prevent loss of oxygen). […] Field excitatory postsynaptic potentials (fEPSPs) were evoked with either an isolated pulse stimulator model 2100 (AM Systems, WA) or ISO-Flex (AMPI, Jerusalem, Israel). For fEPSPs a 10–20 min baseline was recorded at a stimulus intensity that gave 40-50% of the maximal response. […] For fEPSP slope, a 1 ms linear region after the fibre volley was measured. Extracellular recordings were made independently on two electrophysiology rigs.
Statistical significance was tested as indicated in the text using paired or unpaired two-tailed t-tests or one-way or two-way ANOVAs with repeated measures (RM) as appropriate. Bonferroni corrections for multiple comparisons were performed. All in vitro cell signalling assay data was analysed using Prism 8.4 (Graphpad software, San Diego, CA), with all concentration-response curves being fitted using a 3 parameter logistic equation to calculate response range and IC50. All cAMP data was normalised to a forskolin concentration-response curve ran in parallel to each assay.

in vitro = details: human, plasma
Experimental: as §3

[6] = tested on: CA1 pyramidal cells (Goa / Gob signalling); experiment: Whole-cell voltage-clamp, adenosine-induced outward current with intracellular G protein interfering peptides; assay type: cell-based, rat; details: adenosine 10 µM, peptide 100 µM, held at −60 mV
Experimental: as §2
Drugs were made up as stock solutions (1-10 mM) and then diluted in aCSF or saline on the day of use. […] MRS1523 was purchased from Cayman Chemicals (Cambridge Bioscience Ltd., Cambridge UK). […] CA200645 and peptides for interfering with G protein signalling were obtained from Hello Bio (Bristol, UK) and were based on published sequences. […] The scrambled version was […]. […] Peptides were made up as stock solutions (2 mM) and stored at −20 °C. The stock solutions were dissolved in filtered intracellular solution just before use.

[7] = incubation 0 minutes, UoBern01 at 1.00E-06 M
[8] = incubation 60 minutes, UoBern01 at 1.00E-06 M
[9] = incubation 120 minutes, UoBern01 at 1.00E-06 M
[10] = incubation 180 minutes, 1.00E-06 M
[11] = incubation 240 minutes, 1.00E-06 M

NCC(CC(=O)O)c1ccc(Cl)cc1 (stereo not drawn) [baclofen]
membrane hyperpolarisation ([1]; baclofen 10 µM in the presence of BnOCPA 300 nM): 6.5 ± 0.43 mV
membrane hyperpolarisation ([1]; baclofen in control conditions): 6.3 ± 0.76 mV

OC[C@H]1O[C@@H](n2cnc3c(N[C@@H]4CCC[C@H]4OCc4ccccc4)ncnc32)[C@H](O)[C@@H]1O [UoBern01]
Clint [2]: <115.5
Mean / Half-Life [2]: >1 h
1st / % Compound Remaining ([2]; incubation 0 minutes): 100%
2nd / % Compound Remaining ([2]; incubation 0 minutes): 100%
Mean / % Compound Remaining ([2]; incubation 0 minutes): 100%
1st / % Compound Remaining ([2]; incubation 15 minutes): 108.5%
2nd / % Compound Remaining ([2]; incubation 15 minutes): 101.9%
Mean / % Compound Remaining ([2]; incubation 15 minutes): 105.2%
1st / % Compound Remaining ([2]; incubation 30 minutes): 92.9%
2nd / % Compound Remaining ([2]; incubation 30 minutes): 86%
Mean / % Compound Remaining ([2]; incubation 30 minutes): 89.4%
1st / % Compound Remaining ([2]; incubation 45 minutes): 92%
2nd / % Compound Remaining ([2]; incubation 45 minutes): 89.5%
Mean / % Compound Remaining ([2]; incubation 45 minutes): 90.7%
1st / % Compound Remaining ([2]; incubation 60 minutes): 84.1%
2nd / % Compound Remaining ([2]; incubation 60 minutes): 69.7%
Mean / % Compound Remaining ([2]; incubation 60 minutes): 76.9%
2nd / Half-Life ([3]; UoBern01 at 1.00E-06 M): >4 h
Mean / Half-Life ([3]; UoBern01 at 1.00E-06 M): >4 h
1st / % Compound Remaining [3, 7]: 100%
2nd / % Compound Remaining [3, 7]: 100%
Mean / % Compound Remaining [3, 7]: 100%
1st / % Compound Remaining [3, 8]: 100%
2nd / % Compound Remaining [3, 8]: {204.3} %
Mean / % Compound Remaining [3, 8]: 100%
1st / % Compound Remaining [3, 9]: 99.8%
2nd / % Compound Remaining [3, 9]: 105.3%
Mean / % Compound Remaining [3, 9]: 102.5%
1st / % Compound Remaining [3, 10]: 96.7%
2nd / % Compound Remaining [3, 10]: {108.7} %
Mean / % Compound Remaining [3, 10]: 96.7%
1st / % Compound Remaining [3, 11]: 89.5%
2nd / % Compound Remaining [3, 11]: 100.9%
Mean / % Compound Remaining [3, 11]: 95.2%
1st / Half-Life [4]: >2 h
2nd / Half-Life [4]: >2 h
Mean / Half-Life [4]: >2 h
1st / % Compound Remaining ([4]; incubation 0 minutes): 100%
2nd / % Compound Remaining ([4]; incubation 0 minutes): 100%
Mean / % Compound Remaining ([4]; incubation 0 minutes): 100%
1st / % Compound Remaining ([4]; incubation 30 minutes): 104.2%
2nd / % Compound Remaining ([4]; incubation 30 minutes): {224.0} %
Mean / % Compound Remaining ([4]; incubation 30 minutes): 104.2%
1st / % Compound Remaining ([4]; incubation 60 minutes): 124.2%
2nd / % Compound Remaining ([4]; incubation 60 minutes): 99%
Mean / % Compound Remaining ([4]; incubation 60 minutes): 111.6%
1st / % Compound Remaining ([4]; incubation 90 minutes): 133.3%
2nd / % Compound Remaining ([4]; incubation 90 minutes): 101.7%
Mean / % Compound Remaining ([4]; incubation 90 minutes): 117.5%
1st / % Compound Remaining ([4]; incubation 120 minutes): {142.4} %
2nd / % Compound Remaining ([4]; incubation 120 minutes): 108.4%
Mean / % Compound Remaining ([4]; incubation 120 minutes): 108.4%

CCNC(=O)[C@H]1O[C@@H](n2cnc3c(N)ncnc32)[C@H](O)[C@@H]1O [NECA, 5′-(N-Ethylcarboxamido) adenosine]
IC50 ([5]; fEPSP, rat hippocampal slices, read-out: IC50 inhibition of synaptic transmission): 8.3 ± 3 nM

CCCOc1cc(N)ccc1C(=O)OCCN(CC)CC [Propoxycaine]
half-life (in vitro): 3.8 min
2nd / Half-Life [4]: 0.0567 h
Mean / Half-Life [4]: 0.067 h
1st / % Compound Remaining ([4]; incubation 0 minutes): 100%
2nd / % Compound Remaining ([4]; incubation 0 minutes): 100%
Mean / % Compound Remaining ([4]; incubation 0 minutes): 100%
1st / % Compound Remaining ([4]; incubation 30 minutes): 0.4%
2nd / % Compound Remaining ([4]; incubation 30 minutes): 0.2%
Mean / % Compound Remaining ([4]; incubation 30 minutes): 0.3%
1st / % Compound Remaining ([4]; incubation 60 minutes): 0.3%
2nd / % Compound Remaining ([4]; incubation 60 minutes): 0.2%
Mean / % Compound Remaining ([4]; incubation 60 minutes): 0.3%
1st / % Compound Remaining ([4]; incubation 90 minutes): 0.3%
2nd / % Compound Remaining ([4]; incubation 90 minutes): 0.5%
Mean / % Compound Remaining ([4]; incubation 90 minutes): 0.4%
1st / % Compound Remaining ([4]; incubation 120 minutes): 0.1%
2nd / % Compound Remaining ([4]; incubation 120 minutes): 0.3%
Mean / % Compound Remaining ([4]; incubation 120 minutes): 0.2%

LNRGNAYLCIGMG [Goa SCR, scrambled version of the Goa interfering peptide]
adenosine-induced outward current with intracellular peptide [6]: 45.8 pA and 40.3 pA and 52.5 pA and 32 pA and 47 pA and 43.9 pA and 42 pA
adenosine-induced outward current with intracellular peptide ([6]; listed as scrambled Goa peptide): 43.4 ± 2.4 pA
adenosine-induced outward current with intracellular peptide ([6]; mean): 43.36 pA

OC[C@H]1O[C@@H](n2cnc3c(N[C@@H]4CCC[C@H]4OCc4ccccc4)ncnc32)[C@H](O)[C@@H]1O [BnOCPA, (2 R,3 R,4 S,5 R)−2-(6-{[(1 R,2 R)−2-benzyloxycyclopentyl]amino}−9H-purin-9-yl)−5-(hydroxymethyl)oxolane-3,4-diol]
time constant of inhibition of synaptic transmission (single exponential) ([5]; 300 nM): 2.2 min

CNC(=O)[C@H]1O[C@@H](n2cnc3c(NCc4cccc(I)c4)nc(Cl)nc32)[C@H](O)[C@@H]1O [2-Cl-IB-MECA]
effect on membrane potential ([1]; 1 µM): had no effect on membrane potential
